How the values were obtained:
[1] = tested on: Acinetobacter baumannii; experiment: Traditional culture-based antimicrobial susceptibility test; assay type: cell-based
Source text: Table 2 illustrates the results of an example antimicrobial agent susceptibility test of the current application versus a traditional culture-based antimicrobial agent susceptibility test for […], in accordance with one or more embodiments of the disclosure. This specimen underwent extraction and/or DNA purification prior to PCR. As in Table 1, the results of the test of the current application are similar to the results from the traditional test.
(§1) Result Reporting to Healthcare Providers. The results from the antimicrobial exposure are reported to the ordering healthcare provider. This information can be utilized by the healthcare provider when selecting an antimicrobial regimen for their individual patient based on these individual specimen results and patient specific factors. […] The current standard of care for antimicrobial susceptibility testing involves the growth, isolation, and exposure of pathogens to antimicrobials. This traditional culture and sensitivity process can take multiple days to obtain results, limiting the ability of healthcare providers to receive timely results to make actionable changes in patient care or management. Healthcare providers desire a method to obtain antimicrobial susceptibility results with quicker turn-around-time. This application discloses a molecular-based phenotypic antimicrobial susceptibility method which involves pathogen exposure to a panel of antimicrobial agents at their specified minimum inhibitory concentration breakpoints for sensitivity. This method allows for more timely antimicrobial susceptibility results.

[2] = tested on: pathogen of the specimen; experiment: Traditional culture-based antimicrobial susceptibility test (comparison of Table 7); assay type: cell-based; settings: E. coli isolate 1189
Experimental: as §1, with “Table 7 illustrates the results of an example antimicrobial agent susceptibility test of the current application versus a traditional culture-based antimicrobial agent susceptibility test at multiple incubation timepoints, in accordance with one or more embodiments of the disclosure. These specimens were tested with direct PCR (e.g., no extraction DNA purification step prior to PCR). […] Result” for “Result”

[3] = tested on: S. aureus; experiment: Molecular phenotypic antimicrobial susceptibility test with direct PCR (no extraction DNA purification step); assay type: cell-based, Staphylococcus aureus; settings: for Ct at Sensitive Breakpoint: S. aureus isolate NR-46412 HIP13170, Ct at control (average) 18.824; for Molecular Antimicrobial Susceptibility Result: S. aureus isolate NR-46412 HIP13170, at sensitive breakpoint
Experimental: Detection of Molecular Phenotypic Antimicrobial Susceptibility. Disclosed herein are the methods for the detection of phenotypic antimicrobial susceptibility via molecular methods. The present invention describes how a specimen 100 with a known microbial load is incubated and then exposed to a panel of antimicrobial agents to determine sensitivity (prevention of growth) or resistance (allowance of growth) to the specific antimicrobial agents tested utilizing molecular methods.
Sample Collection. Specimens 100 are collected from patients using sterile collection processes that are employed in routine clinical care. Specimens are transported to the testing facility in boric acid preservative.
Preparation of the Specimens for Testing. […] The process for pathogen isolation includes steps of harvesting the pathogen (e.g., via centrifugation), isolating pathogen DNA via a DNA isolation and/or purification kit, and performing PCR on the pathogen DNA via PCR components (e.g., primers, enzymes, buffers) as would be known to the skilled artisan. […] This aliquot is used for antimicrobial susceptibility testing if indicated based on the pathogen detection results. […] Specimens 100 with lower pathogen loads could also be utilized in the antibiotic susceptibility phase of testing with or without a longer incubation period.
Preparation of Antimicrobial Susceptibility Testing Plates. Antimicrobial solutions are prepared at known concentrations. The specific antimicrobials and their concentrations are selected based on the pathogen of interest and the described antimicrobial resistance breakpoints for that specimen pathogen and antimicrobial combination. These antimicrobials have been selected based on those commonly utilized by healthcare providers in routine clinical care for the specific type of suspected infection. The number and types of antimicrobials utilized can be customized based on the infection source, pathogen detected, patient-specific factors such as allergies or other health conditions (e.g., chronic kidney disease or concurrent medication use), or healthcare provider preferences such as antimicrobial availability or cost.
The antimicrobial solutions are prepared in liquid culture media (such as Muller Hinton Broth) to achieve the desired antimicrobial concentration and are then stored at −80° C. until use. For a given specimen, each antimicrobial is tested at a single or multiple antimicrobial concentration(s) which is its established breakpoints for sensitivity. The antimicrobial solutions are prepared and plated out for each specific pathogen. […] This allows for evaluation of pathogen load when no antimicrobial is present.
Specimen Exposure to Antimicrobial Agents. The 1 mL aliquot of the specimen 100 previously mixed with culture media and incubated is obtained. Using optical density measurements as a guide, the specimen 100 is diluted to 0.5 McFarland.
Antimicrobial exposure plates are typically placed into an incubator for 12-16 hours.
Nucleic Acid Amplification of Antimicrobial Agent Exposed Pathogens. The antimicrobial exposure plate is removed after the period of incubation. The specimen then undergoes a purification or lysis step. For example, the specimen may undergo a purification step (e.g., magnetic bead-based or other separation protocol to isolate genetic material). In another example, the specimen may undergo a cell lysis step. For example, buffer (e.g., lysis buffer) may be added and incubated in the thermal cycler for preparation for direct PCR. Next, the specimen may undergo a polymerase chain reaction (PCR) testing protocol, whereby a semi-quantitative PCR method is utilized. This may be completed either with or without a specific extraction protocol step. The pathogens can be individually targeted and detected, or a universal genetic sequence can be utilized to detect the antimicrobial susceptibility of the specimen as a whole.

Molecule | Traditional Culture Result ([1]; A. baumannii isolate 1) | Traditional Culture Result ([1]; A. baumannii isolate 2) | Traditional Culture Result ([1]; A. baumannii isolate 3) | Traditional Culture Result ([1]; A. baumannii isolate 4) | Traditional Culture Result ([1]; A. baumannii isolate 5) | Traditional Culture Result [2] | Ct at Sensitive Breakpoint [3] | Molecular Antimicrobial Susceptibility Result [3]
CO/N=C(\C(=O)N[C@@H]1C(=O)N2C(C(=O)O)=C(CSc3nc(=O)c(=O)[nH]n3C)CS[C@H]12)c1csc(N)n1 [Ceftriaxone] | Resistant | Resistant | Resistant | Resistant | Resistant | Resistant | – | –
CC1(C)S[C@@H]2[C@H](NC(=O)[C@H](N)c3ccccc3)C(=O)N2[C@H]1C(=O)O [Ampicillin] | – | – | – | – | – | Resistant | – | –
CN[C@H](CC(C)C)C(=O)N[C@H]1C(=O)N[C@@H](CC(N)=O)C(=O)N[C@H]2C(=O)N[C@H]3C(=O)N[C@H](C(=O)N[C@H](C(=O)O)c4cc(O)cc(O)c4-c4cc3ccc4O)[C@H](O)c3ccc(c(Cl)c3)Oc3cc2cc(c3O[C@@H]2O[C@H](CO)[C@@H](O)[C@H](O)[C@H]2O[C@H]2C[C@](C)(N)[C@H](O)[C@H](C)O2)Oc2ccc(cc2Cl)[C@H]1O [Vancomycin] | – | – | – | – | – | – | 17.078 | Resistant
Cc1nnc(SCC2=C(C(=O)O)N3C(=O)[C@@H](NC(=O)Cn4cnnn4)[C@H]3SC2)s1 [Cefazolin] | – | – | – | – | – | Resistant | – | –
CN(C)[C@@H]1C(O)=C(C(N)=O)C(=O)[C@@]2(O)C(O)=C3C(=O)c4c(O)cccc4[C@@](C)(O)[C@H]3C[C@@H]12 [Tetracycline] | – | – | – | – | – | – | 18.43 | Resistant
C[C@@H](O)[C@H]1C(=O)N2C(C(=O)O)=C(S[C@@H]3CN[C@H](C(=O)N(C)C)C3)[C@H](C)[C@H]12 [Meropenem] | Resistant | Resistant | Resistant | Resistant | Resistant | Sensitive | – | –
Trimethoprim/Sulfamethoxazole [TMP/SMX] | Sensitive | Sensitive | Sensitive | Sensitive | Sensitive | Sensitive | 28.63 | Sensitive (Antimicrobial wells with pathogen load detected below the control wells (typically >2 cycle thresholds later) may be reported as Sensitive)
Ampicillin/Sulbactam | – | – | – | Sensitive | Sensitive | – | – | –
Gentamicin | – | – | – | Sensitive | Sensitive | Sensitive | – | Resistant
CO/N=C(\C(=O)N[C@@H]1C(=O)N2C(C(=O)[O-])=C(C[N+]3(C)CCCC3)CS[C@H]12)c1csc(N)n1 [Cefepime] | Resistant | Resistant | Sensitive | Resistant | Resistant | Sensitive | – | –
C[C@H]1COc2c(N3CCN(C)CC3)c(F)cc3c(=O)c(C(=O)O)cn1c23 [Levofloxacin] | – | – | – | – | – | – | 18.264 | Resistant
Piperacillin/Tazobactam | Resistant | Resistant | Resistant | Resistant | Resistant | Sensitive | – | –
O=C(O)c1cn(C2CC2)c2cc(N3CCNCC3)c(F)cc2c1=O [Ciprofloxacin] | Resistant | Resistant | Resistant | Resistant | Resistant | Sensitive | 18.586 | Resistant
O=C1CN(/N=C/c2ccc([N+](=O)[O-])o2)C(=O)N1 [Nitrofurantoin] | – | – | – | – | – | – | 31.922 | Sensitive (Antimicrobial wells with pathogen load detected below the control wells (typically >2 cycle thresholds later) may be reported as Sensitive)
CO[C@@]1(NC(=O)Cc2cccs2)C(=O)N2C(C(=O)O)=C(COC(N)=O)CS[C@@H]21 [Cefoxitin] | – | – | – | – | – | Resistant | 14.322 | Resistant
